Measurements taken from publication PMC8249783, “A novel multikinase inhibitor SKLB‐YTH‐60 ameliorates inflammation and fibrosis in bleomycin‐induced lung fibrosis mouse models” (Cell Proliferation, 2021).
Read-outs that look alike come from different tables or passages of the source.

Assays:
[1] = Pharmacokinetics study after IV and PO administration to SD rats; assay type: in vivo; conditions: rat, plasma; for AUC / MRT: SD
Procedure: The appropriate amount of YTH‐60 was accurately weighed, added to the final volume of 5% DMSO, 40% PEG400 and 55% normal saline, and vortexed or ultrasonicated to fully mix. Then, 0.4 and 2 mg·mL^−1 of clarified dosing solution was used for intravenous administration and oral gavage administration. SD rats were transferred from the Experimental Animal Library (999 M‐017), Shanghai Xipuer‐Beikai Experimental Animal Co. Ltd. After oral, intravenous or intragastric administration, blood was collected by jugular vein or other suitable methods. Approximately 0.20 mL of each sample was collected, in the presence of heparin sodium as an anticoagulant. After the blood samples were collected, they were placed on ice and centrifuged to separate plasma within 2 hours (centrifugation conditions: centrifugal force 6800 g, 6 minutes, 2‐8°C). The collected plasma samples were stored at −80°C before analysis by LC‐MS/MS‐18. After analysis, the remaining plasma samples were stored at −80°C for a period of 1 month.

[2] = tested on: LO2 cells; test: Cytotoxicity in normal human liver cell line; assay type: cell-based; conditions: 24 hours exposure
Procedure: The cell viability of YTH‐60 and Nintedanib treatment was performed by MTT and CCK8 assay. Briefly, the exponentially growing cells were seeded in 96‐well (2‐5 × 10^3 cells·well^−1) and cultured for 24 hours. The cells were treated with different concentrations of YTH‐60 (0, 0.625, 1.25, 2.5, 5, 10 µmol·L^−1), after treatment for 24, 48 and 72 hours, respectively, a volume of 20 μL of 5 mg·mL^−1 MTT solution or 10 μL CCK‐8 solution was added to each well and incubation for 2‐4 hours at 37°C. Finally, the 96‐well plates were read on Multiskan FC microplate spectrophotometer at 570 or 450 nm wavelength.

[3] = tested on: A549 cells; test: Wound healing assay; assay type: cell-based, human; conditions: A549, combined with TGF‐β1 vs TGF‐β1 alone
Procedure: A549 cells (1 × 10^6 well^−1) were grown on 6‐well plates in 2 mL 10% FBS DMEM medium. Making a scratch with a sterile 200 μL microtube tip after 24 hours and the scratched cells were washed gently with serum‐free DMEM. Then, TGF‐β1 or YTH‐60 added to their corresponding wells and cultured for 24 hours. Each picture was imaged at three different locations. ImageJ software was used to estimate the percentage of the original width by measuring the width of the scratches.

[4] = tested on: infiltrating inflammatory cells in BALF; test: Bronchoalveolar lavage fluid cell count in BLM mice; assay type: in vivo, C57BL/6 mice; conditions: 30 mg·kg^−1, day 14
Procedure: (§1) Male C57BL/6 mice (8‐10 weeks old) were purchased from HFK Bioscience Co. Ltd. All animal experiments were permitted by the Institutional Animal Care and Treatment Committee of Sichuan University in China (New Permit Number: 20190524003). Lung fibrosis was induced using BLM treatment (2 mg·kg^−1). All C57BL/6 mice were divided into five groups (n = 10): a BLM + Nintedanib group (Nintedanib, 30 mg·kg^−1), a BLM + YTH‐60 group (YTH‐60, 15 mg·kg^−1 and 30 mg·kg^−1), a control group (Sham), and a bleomycin group (Vehicle). At the beginning, the mice were anaesthetized using 10% chloral hydrate, dissolved BLM with saline and administered intratracheally. To evaluate the preventive effect, the next day after BLM challenge, YTH‐60 and Nintedanib were administered intraperitoneally daily for 13 days (fibroproliferation) to the mice. All mice were sacrificed 24 hours after the last drug injection, the lungs and other organs were taken for the subsequent analysis. To test the therapeutic effect, after the 7th day of BLM treatment, mice were injected intraperitoneally with YTH‐60, Nintedanib and vehicle daily for 7 consecutive days (fibroproliferation).
After the animals were anaesthetized, rinsing the lungs with 1 mL of normal saline three times and collected bronchoalveolar lavage fluid. The total living cell count was performed by an ADVIA 2120i.

[5] = tested on: BLM‐induced pulmonary fibrosis; test: BLM‐induced pulmonary fibrosis mouse model, therapeutic treatment (day 7 to 14); assay type: in vivo, C57BL/6 mice; conditions: mice, 30 mg·kg^−1 i.p. from day 7 to 14
Procedure: as §1, with “To test the therapeutic effect, after the 7th day of BLM treatment, mice were injected intraperitoneally with YTH‐60, Nintedanib and vehicle daily for 7 consecutive days (fibroproliferation).” left out
The left lung was detached and immediately fixed in 4% paraformaldehyde for 72 hours and then embed with paraffin wax. […] Ashcroft scoring was used to examine the severity of pulmonary fibrosis. ^20 The image analysis‐based system to quantify collagen deposition was described previously. ^21

[6] = Sprague-Dawley, iv, 2 mg/kg, IV 2 mg/kg, individual animals 101, 102, 103, read-out: Individual plasma concentration
[7] = Sprague-Dawley, iv, 2 mg/kg, IV 2 mg/kg, read-out: Mean plasma concentration
[8] = Sprague-Dawley, po, 20 mg/kg, PO 20 mg/kg, individual animals 201, 202, 203, read-out: Individual plasma concentration
[9] = Sprague-Dawley, po, 20 mg/kg, PO 20 mg/kg, read-out: Mean plasma concentration

**Q.** Which results are given for `COc1cc(OC)c(Cl)c(-c2ccc3c(/C=C/c4ccc(N(C)C(=O)CN5CCN(C)CC5)cc4)n[nH]c3c2)c1Cl` [YTH‐60, (E)‐N‐(4‐(2‐(6‐(2,6‐dichloro‐3,5‐dimethoxyphenyl)‐1H‐indazol‐3‐yl)vinyl)phenyl)‐N‐methyl‐2‐(4‐methylpiperazin‐1‐yl)acetamide]?
**A.** AUC ([1]; po, 20 mg/kg, SD rats, 20 mg·kg^−1 oral administration, read-out: mean AUC(0‐t)): 1.38 µg·h/mL; AUC ([1]; po, 20 mg/kg, SD rats, p.o. 20 mg·kg^−1, read-out: AUC0‐t): 1.38 ± 0.152 µg·h/mL; AUC ([1]; po, 20 mg/kg, SD rats, p.o. 20 mg·kg^−1, read-out: AUC0‐∞): 1.61 ± 0.177 µg·h/mL; MRT ([1]; po, 20 mg/kg, SD rats, p.o. 20 mg·kg^−1, read-out: MRT0‐t): 8.38 ± 0.31 h; MRT ([1]; po, 20 mg/kg, SD rats, p.o. 20 mg·kg^−1, read-out: MRT0‐∞): 12.4 ± 2.67 h; concentration at 0.083 h [1, 6]: 0.355 µg/mL; concentration at 0.083 h [1, 7]: 0.38 µg/mL; concentration at 0.25 h [1, 6]: 0.187 µg/mL; concentration at 0.25 h [1, 7]: 0.187 µg/mL; concentration at 0.5 h [1, 6]: 0.153 µg/mL; concentration at 0.5 h [1, 7]: 0.149 µg/mL; concentration at 1 h [1, 6]: 0.112 µg/mL; concentration at 1 h [1, 7]: 0.117 µg/mL; concentration at 8 h ([1]; Sprague-Dawley, iv, 2 mg/kg, IV 2 mg/kg, 8 h, read-out: Mean plasma concentration): 0.025 µg/mL; concentration at 24 h [1, 6]: 0.00227 µg/mL; concentration at 24 h [1, 7]: 0.00282 µg/mL; concentration at 0.25 h [1, 8]: 0.0336 µg/mL; concentration at 0.25 h [1, 9]: 0.0316 µg/mL; concentration at 0.5 h [1, 8]: 0.0406 µg/mL; concentration at 0.5 h [1, 9]: 0.0338 µg/mL; concentration at 1 h [1, 8]: 0.0359 µg/mL; concentration at 1 h [1, 9]: 0.0321 µg/mL; concentration at 24 h [1, 8]: 0.0245 µg/mL; concentration at 24 h [1, 9]: 0.0191 µg/mL; Cmax ([1]; iv, SD rats, i.v. 2 mg·kg^−1): 0.38 ± 0.037 µg/mL; Tmax ([1]; iv, SD rats, i.v. 2 mg·kg^−1): 0.08 h; half-life ([1]; iv, SD rats, i.v. 2 mg·kg^−1): 4.92 ± 0.17 h; clearance ([1]; iv, SD rats, i.v. 2 mg·kg^−1, unit inferred): 2.55 L/h/kg; Cmax ([1]; po, SD rats, p.o. 20 mg·kg^−1): 0.0958 ± 0.0166 µg/mL; Tmax ([1]; po, SD rats, p.o. 20 mg·kg^−1): 4.67 ± 2.31 h; half-life ([1]; po, SD rats, p.o. 20 mg·kg^−1): 8.03 ± 2.16 h; bioavailability ([1]; po, SD rats, p.o. 20 mg·kg^−1, read-out: F (oral bioavailability)): 17.9 ± 1.97%; cytotoxicity, viability of LO2 cells (in words) [2]: inhibited the viability of LO2 cells less than Nintedanib; cell migration (in words) [3]: significantly inhibited cell migration; infiltrating inflammatory cells in BALF (in words) [4]: significantly reduce the number of infiltrating inflammatory cells; therapeutic effect on BLM‐induced lung fibrosis (in words) [5]: good therapeutic effect
